Source: patent US20220348870A1, “MATERIALS AND METHODS FOR MODIFYING THE ACTIVITY OF T CELLS” (Regents of the University of Minnesota, priority 2016, published 2022)

Experiments:
human tTreg [1] = assay: Foxp3 expression in expanded tTreg by flow cytometry; format: cell-based; details: for Foxp3 protein expression at the population level (% Foxp3+CD127−): 50 nM RNA, antagomir vs scrambled P<0.05
Procedure: (§1) tTreg and CD4+ T-cell cultures, generated as described herein, were frozen on days 14 and 7, respectively. Frozen cells were thawed and re-stimulated with anti-CD3/CD28 mAb-coated Dynabeads (Life Technologies, Carlsbad, Calif.) at 1:3 (cell to bead) ratios in the presence of recombinant IL-2. After 6 days, cultures were washed, re-suspended at 1×10^6 cells/ml, and nanoparticle-encapsulated RNA (50 nM; Scramble/Antagomir, Table 4: EXIQON, Woburn, Mass.) or TRAF6 inhibitor (8 μM, Darmstadt, Germany) or NF-kB inhibitor (PS-1145, 3 μM or 6 μM, Millennium Pharmaceuticals, Cambridge, Mass.) were added. DMSO were vehicles and used as controls. Cells were cultured another 2 days without further manipulation, and were harvested and assayed as listed. For some experiments, tTreg were kept in culture longer (as indicated) without further antagomir addition.
(§2) Human-specific antibodies used for flow cytometry included: CD4 (RPA-T4), CD8 (RPA-T8), CD25 (M-A251), CD45RA (HI100), IFN-gamma, IL-17a, annexin V (PE), 7-AAD (FITC) were purchased from BD Pharmingen, while Foxp3 (clone 249D) was obtained from BioLegend and Ki67 from eBioscience. For cytokine analysis, cells were pre-treated by PMA, ionomycin and brefeldin A for 6 hours and then stained by different cytokine antibodies. The annexin V (PE)/7-AAD (FITC) were applied to assess the apoptosis of tTreg. Acquisition was performed using a LSRII (BD Bioscience) and data were analyzed using FlowJo software (TreeStar) or IDEA (Admin). Nuclear localization of NF-kB was quantitated using an imaging flow cytometer (Imagestream, Amnis Corp; Seattle, Wash.) by intracellularly staining tTreg with anti-NF-kB (vendor) and, after washing, incubating with DRAQ5 for 15 minutes at 10 μM final concentration.

human tTreg [2] = assay: CFSE in vitro suppression assay (anti-CD3-mediated CD8+ T cell proliferation); format: cell-based
Procedure: The in vitro-suppressive capacity of expanded tTregs was assessed with a carboxy fluorescein succinimidyl ester (CFSE) inhibition assay as previously published (Hippen et al., Blood, 2008, 112(7):2847-57). Briefly, PBMNCs were purified, labeled with CFSE (Invitrogen), and stimulated with anti-CD3 mAb-coated beads (Dynal) ±cultured tTreg (1:2 to 1:32 tTregs/PBMNCs). On day 4, cells were stained with antibodies to CD4 and CD8, and suppression was determined from the Division Index (FlowJo, TreeStar). nTregs suppressed CD4 and CD8 T cell responses equivalently and only CD8 data are presented.

TRAF6 = TRAF6 mRNA (RT-PCR) and protein (flow cytometry) expression in tTreg; format: cell-based, human; details: expanded tTregs; for TRAF6 mRNA expression: RT-PCR
Procedure: as §1
as §2, with “For cytokine analysis, cells were pre-treated by PMA, ionomycin and brefeldin A for 6 hours and then stained by different cytokine antibodies. The annexin V (PE)/7-AAD (FITC) were applied to assess the apoptosis of tTreg.” left out
(§3) RNA was extracted from cell pellets using RNeasy Mini Kit with on-column DNase digestion (Qiagen; Hilden, Germany). cDNA synthesis was performed as described in the Expression Analysis Technical Manual (Affymetrix; Santa Clara, Calif.). GAPDH was used as control gene and related gene expression (Bcl-2, Mcl-1, Bcl-xL, BID and BAX; all from IDT, Coralville, Iowa), was analyzed on an Applied Biosystems 7500 Real-Time PCR System using Taqman Universal PCR Master Mix #4304437 and Assay on Demand primer/probe kits (Applied Biosystems; Waltham, Mass.). […]

miR-146b-5p = miR-146b-5p knockdown in expanded tTreg by qRT-PCR; format: cell-based, human
Procedure: as §1, with “For some experiments, tTreg were kept in culture longer (as indicated) without further antagomir addition.” left out
as §3

human tTreg [3] = assay: tTreg expansion, viability (annexin V/7-AAD) and Ki-67 staining; format: cell-based
Procedure: as §1, §2

control CD4 T-cells = assay: Foxp3 expression and suppressive function of control CD4 T-cells; format: cell-based, human; details: antagomir for final 2 days
Procedure: as §1, with “Cells were cultured another 2 days without further manipulation, and were harvested and assayed as listed. For some experiments, tTreg were kept in culture longer (as indicated) without further antagomir addition.” left out
as §2, with “For cytokine analysis, cells were pre-treated by PMA, ionomycin and brefeldin A for 6 hours and then stained by different cytokine antibodies. The annexin V (PE)/7-AAD (FITC) were applied to assess the apoptosis of tTreg.” left out, “concentration. […]” for “concentration.”

human tTreg [4] = assay: Intracellular IFN-gamma assay after PMA/ionomycin re-stimulation; format: cell-based; details: final 2 days treatment
Procedure: as §2

NF-kB = NF-kB nuclear localization by imaging flow cytometry; format: cell-based, human; details: tTreg, 2 days, vs untreated or scramble-treated
Procedure: as §2
TRAF6 is critical for TCR-mediated activation of NF-kB, and acts by ubiquitinylating TAK1, leading to activation of IKK and destruction of IkB, which allows NF-kB to translocate to the nucleus. To determine whether miR-146 antagomir enhanced NF-kB nuclear translocation, in vitro expanded tTreg were left untreated or treated for 2 days with scrambled RNA or miR-146b-5p antagomir, stained for CD4, NF-kB and DRAQ5 (a nuclear marker) and analyzed using imaging flow cytometry. […]

human tTreg [5] = assay: qRT-PCR of NF-kB-responsive, anti- and pro-apoptotic genes in tTreg; format: cell-based
Procedure: RNA was extracted from cell pellets using RNeasy Mini Kit with on-column DNase digestion (Qiagen; Hilden, Germany). cDNA synthesis was performed as described in the Expression Analysis Technical Manual (Affymetrix; Santa Clara, Calif.). GAPDH was used as control gene and related gene expression (Bcl-2, Mcl-1, Bcl-xL, BID and BAX; all from IDT, Coralville, Iowa), was analyzed on an Applied Biosystems 7500 Real-Time PCR System using Taqman Universal PCR Master Mix #4304437 and Assay on Demand primer/probe kits (Applied Biosystems; Waltham, Mass.). For TLDA assay, TLDA v2.0 was performed on the 7900HT real-time PCR system (Applied Biosystems) according to the manufacturer's protocol. Average delta CT was acquired from the results for further analysis. PCR cycling conditions were performed as follows: 95° C. for 15 s and 60° C. for 1 min, 40 cycles and then 95° C. for 10 min. To normalize RNA input, Human RNU44 (Table 4) small RNA was used as an internal control.

## O=C(Nc1cc(Cl)cc2c1[nH]c1cnccc12)c1cccnc1 [PS1145, reference compound]
Human tTreg [1]; tTreg, NF-kB inhibitor 3 μM or 6 μM, final 2 days, vs DMSO
  Foxp3 expression: decreased Foxp3 expression in a dose-dependent manner
Human tTreg [2]; tTreg, NF-kB inhibitor, final 2 days
  in vitro suppressive function: significantly decreased in vitro suppressive function

## Scramble: nanoparticle-encapsulated scrambled control RNA, TAA CAC GTC TAT ACG CCC A (SEQ ID NO: 1) (TAACACGTCTATACGCCCA; nanoparticle-encapsulated, chemistry not given here) [reference compound]
TRAF6
  TRAF6 mRNA expression: no effect was observed
Human tTreg [1]; tTreg, final 2 days
  Foxp3 protein expression at the population level (% Foxp3+CD127−): 73.1%±4.6%

## miR-146b-5p antagomir: nanoparticle-encapsulated antagomir RNA (EXIQON), AGCCTATGGAATTCAGTTCTC (SEQ ID NO: 2) (AGCCTATGGAATTCAGTTCTC; nanoparticle-encapsulated Exiqon antagomir, chemistry not given here)
TRAF6
  TRAF6 mRNA expression: significantly higher TRAF6 mRNA expression
TRAF6; flow cytometry, vs untreated or scramble-treated
  TRAF6 protein expression: significantly enhanced TRAF6 protein expression
miR-146b-5p; day 8 after a single antagomir treatment (not shown)
  miR-146b expression reduced: 70%
miR-146b-5p; tTreg, nanoparticle-encapsulated antagomir 50 nM, 2 days, qRT-PCR
  miR-146b-5p knockdown efficiency: > 95%
Human tTreg [3]; 2 days treatment, annexin V/7-AAD
  tTreg viability: increased viability
Human tTreg [3]; 2 days treatment, n=5
  Ki67 MFI level: higher relative Ki67 MFI level
Human tTreg [3]; day 8 post single treatment, vs untreated or scrambled RNA
  tTreg expansion: expanded significantly more
Human tTreg [3]; initial 2 day treatment period
  tTreg expansion: no significant difference in expansion
Control CD4 T-cells
  FoxP3 expression in control CD4 T-cells: no effect on FoxP3 expression
  suppressive function of control CD4 T-cells: no effect on FoxP3 expression or suppressive function
Human tTreg [1]; day 8 after single treatment
  Foxp3 expression: maintained their higher Foxp3 expression
Human tTreg [1]; tTreg, final 2 days
  Foxp3 protein expression at the population level (% Foxp3+CD127−): 85.5%±3.5%
Human tTreg [1]; tTreg, 2 days, compared to scrambled group
  Foxp3 protein expression at per-cell level: increased Foxp3 protein expression
Human tTreg [4]
  IFN-gamma expression in expanded tTregs: expression was not affected
Human tTreg [2]; day 8 after single treatment
  suppressive function: maintained their higher Foxp3 expression and suppressive function
Human tTreg [2]; tTreg:PBMC 1:8 to 1:32, antagomir-treated at 1:16 as suppressive as scramble-treated at 1:8
  increase in efficacy of tTreg suppressive function: ~2 fold
NF-kB
  NF-kB/DRAQ5 similarity score (nuclear localization): significantly higher similarity scores
Human tTreg [5]; anti-apoptotic gene, tTreg
  Bcl-xL expression: increased expression
  Mcl-1 expression: increased expression
Human tTreg [5]; over untreated or scramble-treated tTreg
  c-myc expression increase: > 3 fold
Human tTreg [5]; pro-apoptotic gene, tTreg
  BAX expression: decreased expression
  BID expression: decreased expression
